Laboratory results published in the NIST ThermoML archive (doi:10.1021/acs.jced.9b00507).

Experiment: xn = mol fraction of the nth substance listed
Conditions: 100 kPa, Liquid; for viscosity: Concentric cylinders viscometry; for mass density: Vibrating tube method

CCCCCCn1cc[n+](C)c1.O=[N+]([O-])[O-] [1-hexyl-3-methylimidazolium nitrate] + CCCCCCCCCO
Conditions	mass density [kg/m3]	viscosity [mPa·s]
293.15 K, x1 = 0.0819	856.1	15.74
293.15 K, x1 = 0.1609	882.8	22.23
293.15 K, x1 = 0.2386	908.3	30.27
293.15 K, x1 = 0.3483	942.9	48.53
293.15 K, x1 = 0.4392	970.5	71.12
293.15 K, x1 = 0.5588	1005.4	117.49
293.15 K, x1 = 0.6508	1031.3	177.42
293.15 K, x1 = 0.7394	1055.3	263.63
293.15 K, x1 = 0.8497	1083.9	413.05
293.15 K, x1 = 0.9456	1107.6	630.96
293.15 K, x1 = 1	1120.3	804.17
298.15 K, x1 = 0.0819	852.5	12.59
298.15 K, x1 = 0.1609	879.2	16.67
298.15 K, x1 = 0.2386	904.7	21.93
298.15 K, x1 = 0.3483	939.3	33.81
298.15 K, x1 = 0.4392	967	48.19
298.15 K, x1 = 0.5588	1001.9	79.43
298.15 K, x1 = 0.6508	1027.9	118.3
298.15 K, x1 = 0.7394	1052	175.79
298.15 K, x1 = 0.8497	1080.7	288.4
298.15 K, x1 = 0.9456	1104.5	439.6
298.15 K, x1 = 1	1117.5	545.25
303.15 K, x1 = 0.0819	849	10.19
303.15 K, x1 = 0.1609	875.5	13.18
303.15 K, x1 = 0.2386	901	16.79
303.15 K, x1 = 0.3483	935.6	24.27
303.15 K, x1 = 0.4392	963.3	33.11
303.15 K, x1 = 0.5588	998.3	51.88
303.15 K, x1 = 0.6508	1024.3	76.03
303.15 K, x1 = 0.7394	1048.4	113.24
303.15 K, x1 = 0.8497	1077.3	188.34
303.15 K, x1 = 0.9456	1101.2	294.59
303.15 K, x1 = 1	1114.3	369.14
308.15 K, x1 = 0.0819	845.5	8.41
308.15 K, x1 = 0.1609	872	10.05
308.15 K, x1 = 0.2386	897.4	12.25
308.15 K, x1 = 0.3483	932	16.94
308.15 K, x1 = 0.4392	959.7	22.08
308.15 K, x1 = 0.5588	994.7	32.81
308.15 K, x1 = 0.6508	1020.6	45.71
308.15 K, x1 = 0.7394	1044.8	68.08
308.15 K, x1 = 0.8497	1073.7	116.37
308.15 K, x1 = 0.9456	1097.8	192.31
308.15 K, x1 = 1	1111.1	257.59
313.15 K, x1 = 0.0819	841.9	6.7
313.15 K, x1 = 0.1609	868.3	7.87
313.15 K, x1 = 0.2386	893.7	9.06
313.15 K, x1 = 0.3483	928.3	11.04
313.15 K, x1 = 0.4392	956	13.27
313.15 K, x1 = 0.5588	991	18.92
313.15 K, x1 = 0.6508	1017	26.73
313.15 K, x1 = 0.7394	1041.2	41.3
313.15 K, x1 = 0.8497	1070.2	73.71
313.15 K, x1 = 0.9456	1094.4	136.37
313.15 K, x1 = 1	1107.8	185.67
318.15 K, x1 = 0.0819	838.3	5.28
318.15 K, x1 = 0.1609	864.7	5.78
318.15 K, x1 = 0.2386	890	6.35
318.15 K, x1 = 0.3483	924.6	7.36
318.15 K, x1 = 0.4392	952.3	8.61
318.15 K, x1 = 0.5588	987.4	11.46
318.15 K, x1 = 0.6508	1013.5	15.85
318.15 K, x1 = 0.7394	1037.8	25.39
318.15 K, x1 = 0.8497	1066.9	53.43
318.15 K, x1 = 0.9456	1091.2	101.71
318.15 K, x1 = 1	1104.7	140.18
323.15 K, x1 = 0.0819	834.7	4.15
323.15 K, x1 = 0.1609	861.1	4.25
323.15 K, x1 = 0.2386	886.4	4.41
323.15 K, x1 = 0.3483	921	4.84
323.15 K, x1 = 0.4392	948.6	5.33
323.15 K, x1 = 0.5588	983.8	6.84
323.15 K, x1 = 0.6508	1009.9	9.63
323.15 K, x1 = 0.7394	1034.3	16.2
323.15 K, x1 = 0.8497	1063.5	37.68
323.15 K, x1 = 0.9456	1088	78.73
323.15 K, x1 = 1	1101.6	110.94

CCCCCCn1cc[n+](C)c1.O=[N+]([O-])[O-] [1-hexyl-3-methylimidazolium nitrate] + CCCCCCCCO
Conditions	mass density [kg/m3]	viscosity [mPa·s]
293.15 K, x1 = 0.0806	856.1	15.49
293.15 K, x1 = 0.1591	885.1	23.39
293.15 K, x1 = 0.2392	913.2	34.36
293.15 K, x1 = 0.3493	949.6	55.85
293.15 K, x1 = 0.4396	977.6	83.56
293.15 K, x1 = 0.5621	1013.2	149.62
293.15 K, x1 = 0.649	1036.9	222.84
293.15 K, x1 = 0.7407	1060.6	331.13
293.15 K, x1 = 0.8495	1087	504.66
293.15 K, x1 = 0.9397	1107.4	677.63
293.15 K, x1 = 1	1120.3	804.17
298.15 K, x1 = 0.0806	852.6	11.3
298.15 K, x1 = 0.1591	881.4	15.96
298.15 K, x1 = 0.2392	909.5	22.23
298.15 K, x1 = 0.3493	946	34.83
298.15 K, x1 = 0.4396	974	51.05
298.15 K, x1 = 0.5621	1009.7	89.33
298.15 K, x1 = 0.649	1033.6	133.05
298.15 K, x1 = 0.7407	1057.3	205.44
298.15 K, x1 = 0.8495	1083.8	321.84
298.15 K, x1 = 0.9397	1104.4	446.63
298.15 K, x1 = 1	1117.5	545.25
303.15 K, x1 = 0.0806	848.9	8.53
303.15 K, x1 = 0.1591	877.7	11.46
303.15 K, x1 = 0.2392	905.8	15.38
303.15 K, x1 = 0.3493	942.3	23.23
303.15 K, x1 = 0.4396	970.3	33.11
303.15 K, x1 = 0.5621	1006.1	54.2
303.15 K, x1 = 0.649	1030	78.89
303.15 K, x1 = 0.7407	1053.8	122.74
303.15 K, x1 = 0.8495	1080.4	203.15
303.15 K, x1 = 0.9397	1101.1	292.37
303.15 K, x1 = 1	1114.3	369.14
308.15 K, x1 = 0.0806	845.3	6.7
308.15 K, x1 = 0.1591	874.1	8.47
308.15 K, x1 = 0.2392	902.1	10.57
308.15 K, x1 = 0.3493	938.6	14.52
308.15 K, x1 = 0.4396	966.7	19.63
308.15 K, x1 = 0.5621	1002.5	32.58
308.15 K, x1 = 0.649	1026.4	47.1
308.15 K, x1 = 0.7407	1050.3	73.28
308.15 K, x1 = 0.8495	1077	127.64
308.15 K, x1 = 0.9397	1097.8	197.38
308.15 K, x1 = 1	1111.1	257.59
313.15 K, x1 = 0.0806	841.7	5.41
313.15 K, x1 = 0.1591	870.4	6.35
313.15 K, x1 = 0.2392	898.4	7.59
313.15 K, x1 = 0.3493	934.8	10
313.15 K, x1 = 0.4396	963	12.88
313.15 K, x1 = 0.5621	998.8	19.77
313.15 K, x1 = 0.649	1022.7	28.31
313.15 K, x1 = 0.7407	1046.7	44.73
313.15 K, x1 = 0.8495	1073.5	81.32
313.15 K, x1 = 0.9397	1094.4	135.25
313.15 K, x1 = 1	1107.8	185.67
318.15 K, x1 = 0.0806	838	4.25
318.15 K, x1 = 0.1591	866.7	4.67
318.15 K, x1 = 0.2392	894.7	5.41
318.15 K, x1 = 0.3493	931.2	7.05
318.15 K, x1 = 0.4396	959.3	8.91
318.15 K, x1 = 0.5621	995.2	13.87
318.15 K, x1 = 0.649	1019.2	19.95
318.15 K, x1 = 0.7407	1043.2	31.92
318.15 K, x1 = 0.8495	1070.1	56.98
318.15 K, x1 = 0.9397	1091.1	99.97
318.15 K, x1 = 1	1104.7	140.18
323.15 K, x1 = 0.0806	834.4	3.56
323.15 K, x1 = 0.1591	863	3.84
323.15 K, x1 = 0.2392	891	4.28
323.15 K, x1 = 0.3493	927.5	5.25
323.15 K, x1 = 0.4396	955.7	6.46
323.15 K, x1 = 0.5621	991.6	9.46
323.15 K, x1 = 0.649	1015.7	13.58
323.15 K, x1 = 0.7407	1039.8	22.08
323.15 K, x1 = 0.8495	1066.8	42.16
323.15 K, x1 = 0.9397	1087.9	76.46
323.15 K, x1 = 1	1101.6	110.94
